# Test results taken from patent US12310936B2, “Pharmaceutical compositions for the treatment of cancer” (Seleq Oy, priority 2018, dated 2025).
# Where a chain is given by its changes, count along the chain named. Names and notes keep the numbering of the source.
# B1: Y101H: mutant human kynurenine aminotransferase I, tyrosine to histidine substitution at position 101 (protein, listed as Homo sapiens)
# chain: MAKQLQARRLDGIDYNPWVEFVKLASEHDVVNLGQGFPDFPPPDFAVEAFQHAVSGDFMLNQYTKTFGYPPLTKILASFFGELLGQEIDPLRNVLVTVGGHGALFTAFQALVDEGDEVIIIEPFFDCYEPMTMMAGGRPVFVSLKPGPIQNGELGSSSNWQLDPMELAGKFTSRTKALVLNTPNNPLGKVFSREELELVASLCQQHDVVCITDEVYQWMVYDGHQHISIASLPGMWERTLTIGSAGKTFSATGWKVGWVLGPDHIMKHLRTVHQNSVFHCPTQSQAAVAESFEREQLLFRQPSSYFVQFPQAMQRCRDHMIRSLQSVGLKPIIPQGSYFLITDISDFKRKMPDLPGAVDEPYDRRFVKWMIKNKGLVAIPVSIFYSVPHQKHFDHYIRFCFVKDEATLQAMDEKLRKWKVEL
# B2: H279F: mutant human kynurenine aminotransferase I, histidine to phenylalanine substitution at position 279 (protein, listed as Homo sapiens)
# chain: B1 chain with H101Y, H279F
# Experiments:
# HCC cells = assay: Modulation of SMC cytotoxicity by agents that favor beta-elimination; settings: more prominent together with overexpression of KYAT1
# Native HCC cells = assay: HCC cell viability with SMC in the presence of alfaketoacid analogues, native HCC cells; type: cell-based; settings: IC50 of SMC in the presence of the labelled alfaketoacid analogue, relative to PPA treated HCC cells (=100)
# Description: (§1) Normal hepatocytes and malignant hepatocytes (HCC) were incubated in the presence of various concentrations of SMC. After 72 h, the ATP content of lysed cells, which is proportional to the number of viable cells, was measured using a luminescence-based CellTiter Glo Kit (Promega) according to manufacturer's protocol using a FLx100 Luminometer (BioTek).
# KYAT induced cells = assay: HCC cell viability with SMC in the presence of alfaketoacid analogues, KYAT induced cells; type: cell-based; settings: IC50 of SMC in the presence of the labelled alfaketoacid analogue, relative to untreated KYAT induced cells
# Description: as §1
# human KYAT1 = assay: Selenol production by mutated KYAT1 using SMC as a substrate; type: biochemical; settings: mutant versus wild type KYAT1
# Description: The crystal structure of human KYAT1 has been determined for several complexes. The complex of KYAT1 with the cofactor PLP and the inhibitor L-Phe was used to create molecular models of Seleno-methyl Cystein (SMC) in complex with KYAT1 (FIG. 1). Our approach has been to identify residues that can be mutated in order to enhance beta-elimination of SMC, resulting in increased selenol production. This can be done by changing the substrate specificity of KYAT1 from kynurenine to SMC, or by changing kinetics of reprotonation of Calpha in the substrate. Several residues were mutated to check their potential involvement into the selenol formation.
Molecule,effect of the agent on the cytotoxicity of SMC (HCC cells),SMC IC50 (percentage of control) (Native HCC cells),selenol production by KYAT1 using SMC as a substrate (human KYAT1),other results
"Cc1ncc(COP(=O)(O)O)c(C=O)c1O [PLP, pyridoxal 5′-phosphate]",increase the cytotoxicity of SMC,–,–,–
"O=C(O)C(=O)Cc1ccccc1 [PPA, phenyl pyruvic acid]",increase the cytotoxicity of SMC,100 percentage of control,–,–
indole pyruvic acid [IPA],–,38 percentage of control,–,SMC IC50 (percentage of control) (KYAT induced cells): 35 percentage of control
"COC(=O)CCC(=O)C(=O)OC [αKG, dimethyl-2-oxoglutarate]",increase the cytotoxicity of SMC,–,–,–
B1,–,–,higher selenol production,–
B2,–,–,higher selenol production,–
